# Test results as given in patent publication US20050049299A1, “Selective inhibitors of stat-3 activation and uses thereof” (priority 2003, published 2005).
# Columns and labels:
# STAT3 phosphorylation [1] = assay: Constitutive STAT3 phosphorylation in U266 cells (Western blot); assay type: cell-based, human
# Description: U266 cells (2×10^6) were treated with the indicated concentrations of curcumin for 1 h, or treated with 50 μM curcumin for the indicated durations and levels of phosphorylated-STAT3 (upper panel) and STAT3 (lower panel) were examined in whole cell extracts by Western Blotting. […] U266 cells (2×10^6) were treated with 50 μM curcumin for indicated durations, and examined for phosphorylated and nonphosphorylated-STAT3, and STAT5. […] U266 cells (2×10^6) were preincubated with curcumin (50 μM) for indicated durations before treatment with IFN-α (10 ng/ml) for additional 30 min and then examined for phosphorylated and nonphosphorylated-STAT1.
# U266 cells (2×10^6 cells) were treated with 50 μM curcumin for the indicated durations (left panels) or treated for 1 h and washed with PBS two times to remove curcumin before resuspending in fresh medium. Cells were removed at indicated times and lysed to prepare the whole cell extract (right panels). Thirty micrograms of whole cell extracts were resolved on 7.5% SDS-PAGE, electrotransferred to a nitrocellulose membrane, probed for the phosphorylated-STAT3 (upper panels) and stripped and reprobed for STAT3 (middle panels) and β-actin (lower panels).
# Thirty micrograms of whole-cell extract was resolved on 7.5% SDS-PAGE, electrotransferred to a nitrocellulose membrane, probed for the phospho-STAT3 (upper panel), stripped, and reprobed for STAT3 (middle panel) and β-actin (lower panel).
# (§1) For detection of STAT proteins, whole-cell extracts were prepared by lysing the curcumin-treated cells in lysis buffer (20 mM Tris, pH 7.4, 250 mM NaCl, 2 mM EDTA, pH 8.0, 0.1% Triton-X100, 0.01 mg/ml aprotinin, 0.005 mg/ml leupeptin, 0.4 mM PMSF, and 4 mM NaVO4). Lysates were then spun at 14000 rpm for 10 min to remove insoluble material, and resolved on a 7.5% gel. After electrophoresis, the proteins were electrotransferred to a nitrocellulose membrane, blocked with 5% nonfat milk, and probed with anti-STAT antibodies (1:1000) overnight at 4° C. The blot was washed, exposed to HRP-conjugated secondary antibodies for 1 h, and finally examined by chemiluminescence (ECL, Amersham Pharmacia Biotech. Arlington Heights, Ill.).
# Whether curcumin inhibits the constitutive STAT3 phosphorylation in U266 was investigated. U266 cells were incubated either with different concentrations of curcumin for 1 h or with 50 μM curcumin for different times. Curcumin inhibited the constitutively active STAT3 in a dose-(FIG. 1A) and time-(FIG. 1B) dependent manner. Curcumin-induced inhibition could be observed as early as 10 min and with a concentration as low as 10 μM.
# Whether curcumin-induced inhibition of STAT3 phosphorylation was reversible was further examined. U266 cells were first treated for 60 min with curcumin, and then the cells were washed twice with PBS to remove curcumin. The cells were then cultured in the fresh medium for various durations, and the levels of phosphorylated STAT3 were measured.
# In comparison, treatment of cells with 50 μM curcumin for 60 minutes was sufficient to inhibit STAT3 phosphorylation (see FIGS. 1A and 1B).
# multiple myeloma cells = assay: Proliferation of multiple myeloma cells, curcumin vs AG490 (data not shown); assay type: cell-based, human; conditions: 100 μM, 24 hours (data not shown)
# STAT3 phosphorylation [2] = assay: Constitutive STAT3 phosphorylation in MDA 1986LN cells (Western blot); assay type: cell-based, human; conditions: AG490 100 μM, 8 hrs
# Description: TU167, MDA 1986LN, TU 686, MDA 686LN and JMAR cells (2×10^6 cells) were lysed and whole cell extracts (30 μg) were resolved on 7.5% SDS-PAGE, electrotransferred to a nitrocellulose membrane and probed for phosphorylated-STAT3 (p-STAT3) and total STAT3 proteins. […] MDA 1986LN cells (2×10^6 cells) were treated with curcumin (50 μM) for indicated durations or with indicated concentrations of curcumin for 1 h and levels of p-STAT3 (upper panels) and STAT3 (lower panels) were examined in whole cell extracts by Western blotting.
# MDA 1986LN cells (2×10^6 cells) were treated with curcumin (50 μM) for the indicated durations (upper panels) or treated for 1 h and washed twice with PBS to remove curcumin before re-suspending in fresh medium. Cells were removed at indicated times and lysed to prepare the whole cell extract (lower panels). The whole cell extracts (30 μg) were resolved on 7.5% SDS-PAGE, electrotransferred to a nitrocellulose membrane, probed for the p-STAT3 (upper panels) and striped and reprobed for STAT3 (lower panels).
# MDA 1986LN cells (2×10^6 cells) were treated with indicated concentrations of AG490 for 8 h and whole extracts prepared. These whole-cell extracts (30 μg) were resolved on 7.5% SDS-PAGE, electrotransferred to a nitrocellulose membrane, probed for p-STAT3 (upper panel), striped and reprobed for STAT3 (middle panel) and β-actin (lower panel). […] The cells were treated with AG490 (100 μM) for the indicated durations and whole cell extracts prepared and analyzed as mentioned earlier. FIG. 15C compares the effect of curcumin and AG490 on proliferation of MDA 1986LN cells by MTT assay.
# Since STAT3 was constitutively phosphorylated in MDA 1986LN cells, the ability of curcumin to inhibit the constitutive STAT3 phosphorylation was examined. MDA 1986LN cells were treated either with curcumin (50 μM) for different durations or with different concentrations of curcumin for 1 h and the p-STAT3 levels and STAT3 levels were determined. Curcumin inhibited the constitutively active STAT3 in a time-(FIG. 11B) and a dose-(FIG. 11C) manner. This curcumin-induced inhibition could be observed as early as 30 min and with a concentration as low as 25 μM.
# MDA 1986LN cells were treated with curcumin for indicated times or for 1 h and the cells were washed twice with PBS to remove curcumin. The cells were then cultured in media for various durations and the levels of phosphorylated STAT3 were determined. […] However, the STAT3 levels were unaffected by curcumin treatment.
# The concentration and the exposure time for AG490 to inhibit STAT3 phosphorylation in MDA 1986LN cells were determined. These cells were incubated with either different concentrations of AG490 or with 100 μM of AG490 for different durations and the levels of p-STAT3 and STAT3 were assessed.
# STAT3 phosphorylation [3] = assay: Constitutive STAT3 phosphorylation in U266 cells (Western blot); assay type: cell-based, human; remark: listed apart in the source
# STAT3 phosphorylation [4] = assay: IL-6-inducible STAT3 phosphorylation in RPMI 8226 cells (Western blot); assay type: cell-based, human; conditions: IL-6 10 ng/ml
# Description: FIGS. 3A-C show& that IL-6 induces STAT3 phosphorylation in human multiple myeloma RPMI 8226 cells and curcumin inhibits it. […] U266, RPMI 8226, MM.1S, MM.1R and OCl cells (2×10^6) were lysed, and 30 μg of whole-cell extracts were resolved on 7.5% SDS-PAGE, electrotransferred to a nitrocellulose membrane, and probed for phosphorylated-STAT3 (upper panel) and STAT3 (lower panel). […] Thirty micrograms of whole cell extracts were resolved on 7.5% SDS-PAGE, electrotransferred to a nitrocellulose membrane, and probed for the phosphorylated-STAT3 (upper panel) and stripped and reprobed for STAT3 (middle panel) and β-actin (lower panel).
# as §1
# Since IL-6 is a growth factor for multiple myeloma and induces STAT3 phosphorylation (5, 6, 15), whether curcumin could inhibit IL-6-induced STAT3 phosphorylation was examined. […] IL-6 induced phosphorylation of STAT3 as early as 5 min and began to decline at 60 minutes (FIG. 3B). RPMI 8226 cells were then incubated with curcumin for different times and examined for IL-6-inducible STAT3 phosphorylation.
# Exposure of cells to curcumin for 4 hours was sufficient to completely suppress IL-6-induced STAT3 phosphorylation. Curcumin alone had no effect on STAT3 phosphorylation in these cells (data not shown).
# U266 cells = assay: IL-6-induced proliferation of U266 cells (thymidine incorporation, MTT); assay type: cell-based, human; conditions: serum starved 12 h, IL-6 48 h
# Description: (§2) FIGS. 7A-B show& that IL-6 induces proliferation of human multiple myeloma cells and curcumin inhibits it. […] Cell proliferation assays were performed as described below. Results are shown as mean (±s.d.) of percent [^3H] thymidine incorporation or percent proliferation by MTT of triplicate cultures compared to the untreated control.
# (§3) The antiproliferative effects of curcumin against different multiple myeloma cell lines were determined by the MTT dye uptake method as described earlier (28). Briefly, the cells (5000/well) were incubated in triplicate in a 96-well plate in the presence or absence of indicated test samples in a final volume of 0.1 ml for 24 h at 37° C. […] The OD at 570 nm was measured using a 96-well multiscanner autoreader (Dynatech MR 5000), with the extraction buffer serving as blank. Percent cell viability cell viability was calculated using the following formula: Percent cell viability=(OD of the experiment samples/OD of the control)×100.
# (§4) The antiproliferative effects of curcumin were also monitored by the thymidine incorporation method. […] Six hours before the completion of experiment, cells were pulse treated with 0.5 μCi [^3H]thymidine, and the uptake of [^3H]thymidine was monitored using a Matrix-9600 β-counter (Packard Instruments, Downers Grove, Ill.). […]
# (§5) Whether curcumin suppresses the proliferative effects of IL-6 was determined.
# MM.1 cells = assay: IL-6-induced proliferation of MM.1 cells; assay type: cell-based, human; conditions: serum starved 12 h, IL-6 48 h
# Description: as §2, §3, §4, §5
# MM.1R cells = assay: IL-6-induced proliferation of MM.1R cells; assay type: cell-based, human; conditions: serum starved 12 h, IL-6 48 h
# Description: as §2, §3, §4, §5
# RPMI 8226 cells = assay: IL-6-induced proliferation of RPMI 8226 cells; assay type: cell-based, human; conditions: serum starved 12 h, IL-6 48 h
# Description: as §2
# The antiproliferative effects of curcumin were also monitored by the thymidine incorporation method. For this, 5000 cells in 100 μl medium were cultured in triplicate in 96-well plates in the presence or absence of curcumin for 24 h. Six hours before the completion of experiment, cells were pulse treated with 0.5 μCi [^3H]thymidine, and the uptake of [^3H]thymidine was monitored using a Matrix-9600 β-counter (Packard Instruments, Downers Grove, Ill.).
# To reconfirm previous reports (5, 6, 15, 31) that IL-6 induces proliferation of MM cells, U266, RPMI 8226, MM.1 and MM.1R were serum-starved for 12 h and then cultured them in the absence or presence of different concentrations of IL-6 for 48 h.
# STAT3 phosphorylation [5] = assay: STAT3 phosphorylation in MM.1S and MM.1R cells after TNF, LT or IL-6 (Western blot); assay type: cell-based, human; conditions: IL-6 10 minutes (positive control)
# Description: The cell proliferation assay was performed as described below. Results are shown as mean (±s.d. indicated by error bar) of percent [^3H] thymidine incorporation of triplicate cultures compared to the untreated control. […] Cells were treated with IL-6 for 10 minutes as a positive control for STAT3 phosphorylation. Thirty micrograms of whole cell extract was were resolved on 7.5% SDS-PAGE, electrotransferred to a nitrocellulose membrane, and probed for phosphorylated-STAT3 (upper panel), stripped, and reprobed for STAT3 (lower panel).
# as §1
# MM.1S and MM.1R cells were serum starved for 12 h and then treated with TNF or lymphotoxin in the serum free medium.
# STAT3 phosphorylation [6] = assay: IL-6-induced STAT3 phosphorylation in JMAR cells (Western blot); assay type: cell-based, human; conditions: IL-6 10 ng/ml
# Description: JMAR cells (2×10^6 cells) were treated with IL-6 (10 ng/ml) for the indicated time and whole cell extracts were prepared. These extracts (30 μg) were resolved on 7.5% SDS-PAGE, electrotransferred to a nitrocellulose membrane and probed for p-STAT3 (upper panel) and stripped and re-probed for STAT3 (lower panel). […] JMAR cells were pretreated with curcumin (50 μM) for indicated durations and stimulated with IL-6 (10 ng/ml) for 10 mins and whole cell extract prepared and probed as mentioned earlier.
# JMAR cells were treated with IL-6 for different durations and the levels of p-STAT3 and STAT3 were examined. Treatment with IL-6 as early as 5 mins induced STAT3 phosphorylation in JMAR cells (FIG. 14A, upper panel). However, STAT3 levels were unaffected (FIG. 14A, lower panel).
# Further, since IL-6 induced STAT3 phosphorylation in JMAR cells, the ability of curcumin to inhibit this STAT3 phosphorylation was also examined. JMAR cells were pretreated with curcumin for different durations and stimulated with IL-6 for 10 minutes. Both the status of p-STAT3 and STAT3 were determined in the whole cell extracts of these cells. Treatment with curcumin for as early as 30 minutes led to decline in the phosphorylation of STAT3 which declined further with increased exposure to curcumin. Exposure to curcumin for 2 hours inhibited STAT3 phosphorylation in JMAR cells (FIG. 14B, upper panel). The STAT3 levels were unaffected by this treatment (FIG. 14B, lower panel).
# [7] = system: MDA 1986LN, JMAR and MDA 686LN cells; assay: IL-6-induced proliferation of human HNSCC cells (thymidine incorporation); assay type: cell-based; conditions: serum starved 12 hrs, IL-6 48 hrs
# Description: Human head and neck squamous cell carcinoma cells MDA 1986LN, JMAR and MDA 686LN were serum starved for 12 hrs. These cells were then cultured with the indicated concentrations of IL-6 for 48 hrs in serum-free medium. Cell viability was determined by thymidine incorporation method.
# The present invention also investigated the effect of IL-6 on the proliferation of human HNSCC cells such as MDA 1986LN, JMAR and MDA 686LN by thymidine incorporation method. These cells were serum starved for 12 hrs and then cultured with different concentrations of IL-6 for 48 hrs in serum-free medium.
Compound,dose needed to suppress STAT3 phosphorylation (comparison AG490 vs curcumin) (STAT3 phosphorylation [1]),proliferation of multiple myeloma cells (multiple myeloma cells),inhibition of STAT3 phosphorylation (STAT3 phosphorylation [2]),exposure needed to completely inhibit STAT3 phosphorylation (STAT3 phosphorylation [3]; 100 μM AG490),dose needed to completely inhibit STAT3 phosphorylation (STAT3 phosphorylation [3]; 8 h),earliest time of IL-6-induced phosphorylation of STAT3 (STAT3 phosphorylation [4]),time at which IL-6-induced STAT3 phosphorylation began to decline (STAT3 phosphorylation [4]),proliferation of U266 cells induced by IL-6 (U266 cells),proliferation of MM.1 cells induced by IL-6 (MM.1 cells),proliferation of MM.1R cells induced by IL-6 (MM.1R cells),proliferation response of RPMI 8226 cells to IL-6 (RPMI 8226 cells),induction of STAT3 phosphorylation (STAT3 phosphorylation [5]),earliest time of IL-6-induced STAT3 phosphorylation (STAT3 phosphorylation [6]),proliferation of human HNSCC cells induced by IL-6 [7]
N#C/C(=C/c1ccc(O)c(O)c1)C(=O)NCc1ccccc1 [AG490],100 µM,no effect,completely inhibited,8 h,100 µM,–,–,–,–,–,–,–,–,–
IL-6: bacteria-derived recombinant human IL-6 provided by Sandoz Pharmaceutical,–,–,–,–,–,5 min,60 min,induced proliferation,induced proliferation,induced proliferation,did not respond,induced STAT3 phosphorylation in both cell lines,5 min,"induced proliferation of MDA 1986LN, JMAR and MDA 686LN cells"
